Experimental data taken from publication PMC3062192 (Bioorganic & medicinal chemistry letters, 2011).

What was measured:
[1] = molecular target: Cdk5/p25 (Homo sapiens, UniProt Q00535); test: Cdk5/p25 radiometric kinase inhibition assay; assay type: biochemical
[2] = tested on: phosphorylated tau at Serine 235 (Ptau235) in primary neurons; test: inhibition of tau phosphorylation; assay type: cell-based; conditions: rat primary neurons, 4 h at 37 °C, Ptau235 immunoblot

Chain of Cdk5/p25 (Q00535 whole entry): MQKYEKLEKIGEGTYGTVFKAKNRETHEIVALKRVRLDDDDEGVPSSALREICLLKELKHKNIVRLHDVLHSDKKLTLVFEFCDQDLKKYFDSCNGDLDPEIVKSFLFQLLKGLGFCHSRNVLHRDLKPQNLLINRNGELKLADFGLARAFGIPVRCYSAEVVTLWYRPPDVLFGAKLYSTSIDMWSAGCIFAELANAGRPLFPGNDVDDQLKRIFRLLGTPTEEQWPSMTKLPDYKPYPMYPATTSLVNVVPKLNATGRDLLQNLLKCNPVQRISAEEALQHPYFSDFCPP
Chain of Cdk5/p25 (Q15078 99-307 partner limits assumed): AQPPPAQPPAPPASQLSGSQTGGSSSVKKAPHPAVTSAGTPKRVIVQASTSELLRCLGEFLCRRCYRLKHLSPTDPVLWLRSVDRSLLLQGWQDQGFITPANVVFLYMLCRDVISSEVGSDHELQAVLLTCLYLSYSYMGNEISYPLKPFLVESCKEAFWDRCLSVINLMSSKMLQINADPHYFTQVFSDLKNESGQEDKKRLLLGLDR

Compound | binding ΔΔG ([1]; calculated from the listed activities for the pair 26 and 28) [kcal/mol] | inhibition of tau phosphorylation (in words) [2] | Cdk5/p25 inhibitory activity (in words) ([1]; radiometric assay)
Nc1nc(Nc2cccnc2)sc1C(=O)c1ccccc1F [Compound 26] | -2.6 | dose-dependent inhibition of tau phosphorylation | 
CNc1nc(Nc2cccnc2)sc1C(=O)c1ccccc1F [Compound 43] |  |  | abolished inhibitory activity
